One data set has as its system mice. The conditions noted are these: mouse, in vivo; cited from earlier work.
A further data set has as its system guinea-pigs. The conditions noted are these: guinea pig, in vivo; cited from earlier work.
The subject of another data set is primates. The conditions noted are these: cited from earlier work.
The next data set has as its system rat hepatocytes. The data set is described as follows: in vitro metabolism in rat hepatocytes in suspension (GC-MS). The class given is in vitro ADME. The settings on record: incubated with hepatocytes isolated from rats, 'substantially no' = below limit of detection, i.e. <1%. From the text:
Decrease of Lilial™ and the compound released by the precursor of the present invention, and formation of the corresponding benzoic acid derivative may be analysed by GC-MS.
By “substantially no benzoic acid derivative” is meant that the concentration of said derivative is below the limit of detection, i.e. <1%. As such, the precursor releasing the compound of formula (I) provides perfumers with an eminently suitable surrogate for the valuable yet problematic Lilial™.

On to `CC(C=O)Cc1ccc(C(C)(C)C)cc1` (centres unmarked) [Lilial™, 3-(4-tert-butylphenyl)-2-methylpropanal], for which the “effects (reproductive toxicity)” value in the data set with mice, in the data set with guinea-pigs and in the data set on primates was “No effects” in each case.

In the case of `Cc1cc(CC(C)C)ccc1CCC=O` [compound of formula (I), 3-(4-isobutyl-2-methylphenyl)propanal], the “enzymatic degradation to / formation of the corresponding benzoic acid derivative” value with rat hepatocytes is on record as “no, or substantially no”; in the data set on rat hepatocytes (listed as compound released by the precursor of the present invention), “not susceptible”.
